Reference: patent US9272026B2, “HLA-A*1101-restricted WT1 peptide and pharmaceutical composition comprising the same” (International Institute of Cancer Immunology, Inc., priority 2006, dated 2016)
Read-outs that look alike come from different tables or passages of the source. No end group written: not given here.

Tests used:
[1] = tested on: B-LCL cells pulsed with the same WT1 peptide (BLCL-Ps); test: 51Cr release assay: cytotoxic activity of CTLs induced with WT1 peptide against peptide-pulsed B-LCL cells; details: CTLs induced with 20 μg/ml peptide; E/T ratio 1:1 to 30:1; 4 hours; FIGS. 1-9
Experimental: The PBMCs were then seeded to a 24-well cell culture plate at the density of about 1×10^7 in RPMI 1640 medium containing 10% FCS, and a culture supernatant of B95-8 cells (cells producing EB virus) were added. They were cultured at 37° C. with 5% CO2 for about 1 month. B-LCL cells transformed with EB virus, which are B-cell tumor cells, were obtained. […] B-LCL cells were pulsed by incubating them with 20 μg/ml of WT1251, WT1279, WT1312, WT1313, WT1338, WT1378, WT1386, WT1415 or WT1436 for 2 hours, and irradiated with 80 Gy of radiation. The resulting B-LCL cells (hereinafter referred to as B-LCL cells pulsed with a WT1 peptide) were used as antigen-presenting cells for the following experiments. […]
The cytotoxic activity of CTLs was measured using ^51Cr release assay. […] The amounts of ^51Cr released into the supernatants were measured using a liquid scintillation counter. The cytotoxic activity (%) was determined using the following formula: (^51Cr release in supernatant of sample−Spontaneous ^51Cr release)/(Maximum ^51Cr release−Spontaneous ^51Cr release)×100 wherein Spontaneous ^51Cr release is ^51Cr release observed when the target cells into which ^51Cr had been incorporated were cultured alone under the same condition, and Maximum ^51Cr release is ^51Cr release observed when the target cells into which ^51Cr had been incorporated were completely lysed using 1% Triton X-100.

B-LCLs expressing WT1 [2] = test: 51Cr release assay: cytotoxic activity of CTL against cell expressing WT1 endogenously; details: B-LCL into which a human WT1 gene is introduced; FIGS. 1, 2, 4, 5 and 7
Experimental: (§1) The PBMCs were then seeded to a 24-well cell culture plate at the density of about 1×10^7 in RPMI 1640 medium containing 10% FCS, and a culture supernatant of B95-8 cells (cells producing EB virus) were added. They were cultured at 37° C. with 5% CO2 for about 1 month. B-LCL cells transformed with EB virus, which are B-cell tumor cells, were obtained. […] B-LCL cells were pulsed by incubating them with 20 μg/ml of WT1251, WT1279, WT1312, WT1313, WT1338, WT1378, WT1386, WT1415 or WT1436 for 2 hours, and irradiated with 80 Gy of radiation. The resulting B-LCL cells (hereinafter referred to as B-LCL cells pulsed with a WT1 peptide) were used as antigen-presenting cells for the following experiments.
(§2) 3×10^6 of autologous PBMCs were cultured in a 24-well cell culture plate in complete medium (45% RPMI, 45% AMI-V medium and 10% human AB serum) containing 20 μg/ml of WT1251, WT1279, WT1312, WT1313, WT1338, WT1378, WT1386, WT1415 or WT1436 at 37° C. with 5% CO2 for 1 week to obtain responding cells. 2×10^6 of the resulting responding cells were cocultured with 1×10^6 of the B-LCL cells pulsed with the same WT1 peptide in complete medium for 1 week (first stimulation). The PBMCs were coculutured with the B-LCL cells pulsed with the WT1 peptide three more times (second to fourth stimulations) under the conditions under which 20 IU/ml (final concentration) of IL2 was added as follows: second stimulation: two times every other day from 3 days after the initiation of stimulation; third and fourth stimulations: three times at intervals of one day from the day after the initiation of stimulation. The resulting cells were concentrated using Negative Selection Columns Gravity Feed Kit (StemSp) so that the ratio of CD8-positive T cells became about 80%, and cocultured with the B-LCL cells pulsed with the WT1 peptide (fifth stimulation). CD8-positive T cells (CTLs) obtained 5 days after the final stimulation were used for measurement of the cytotoxic activity.
(§3) The cytotoxic activity of CTLs was measured using ^51Cr release assay. CTL cells (hereinafter referred to as effector cells) were mixed at the ratio (E/T ration) of 1:1 to 30:1 in 200 μl of medium with target cells into which ^51Cr had been incorporated, and cultured in a 96-well cell culture plate at 37° C. with 5% CO2 for 4 hours. B-LCL cells pulsed with the same WT1 peptide as that used for induction of CTLs (BLCL-Ps), and B-LCL cells without pulsing with a WT1 peptide (BLCL-NPs) were used as target cells. After the culture, the supernatants were collected by centrifugation. The amounts of ^51Cr released into the supernatants were measured using a liquid scintillation counter. The cytotoxic activity (%) was determined using the following formula: (^51Cr release in supernatant of sample−Spontaneous ^51Cr release)/(Maximum ^51Cr release−Spontaneous ^51Cr release)×100 wherein Spontaneous ^51Cr release is ^51Cr release observed when the target cells into which ^51Cr had been incorporated were cultured alone under the same condition, and Maximum ^51Cr release is ^51Cr release observed when the target cells into which ^51Cr had been incorporated were completely lysed using 1% Triton X-100.
(§4) The cytotoxic activity of CTLs induced with WT1251, WT1279, WT1313, WT1338 or WT1386 against B-LCLs expressing WT1 was determined using the method described above.

B-LCLs expressing WT1 [3] = tested on: B-LCLs expressing WT1
Experimental: as §1, §2, §3, §4

human cells = details: HLA-A*2402; Non-patent Document 12; cited from earlier work
[4] = tested on: human peripheral blood mononuclear cells having HLA-A*0201; details: human PBMCs having HLA-A*0201; Non-patent Document 11; cited from earlier work
[5] = tested on: PBMCs from HLA-A*1101-positive healthy donors; test: Induction of CTL by WT1 peptide dimer and related peptides using PBMCs from HLA-A*1101-positive healthy donors 1-3; format: cell-based, human; details: FIGS. 10-14
From the text: After the culture, the supernatants were collected by centrifugation.
Abilities of the resulting WT1378 peptide dimer, WT1378 peptide, modified WT1378 peptide (G→I) (SEQ ID No: 11) and modified WT1378 peptide (G→V) (SEQ ID No: 12) as well as WT1379 peptide (SEQ ID No: 13, as disclosed in WO 2002/28414) to induce a CTL were examined using PBMCs from HLA-A*1101-positive healthy donors 1-3 according to the method as described above.

**Q.** Which results are given for AAGSSSSVK [WT1251]?
**A.** cytotoxic activity of induced CTLs against BLCL-Ps as compared with BLCL-NPs [1]: damage specifically BLCL-Ps; cytotoxic activity of induced CTLs against cells expressing WT1 gene endogenously (B-LCLs expressing WT1 [2]): have a cytotoxic activity against cells expressing WT1 gene endogenously

**Q.** With SASETSEKR [WT1313] as the substance, how does the “cytotoxic activity of induced CTLs against cells expressing WT1 gene endogenously” value (B-LCLs expressing WT1 [3]) read?
**A.** Its value is “have a cytotoxic activity against cells expressing WT1 gene endogenously”.

**Q.** For KTCQRKFSR [WT1386], which “cytotoxic activity of induced CTLs against cells expressing WT1 gene endogenously” value (B-LCLs expressing WT1 [3]) is on record?
**A.** The value was “have a cytotoxic activity against cells expressing WT1 gene endogenously”.

**Q.** With SHLQMNSRK [WT1338] as the substance, how does the “cytotoxic activity of induced CTLs against cells expressing WT1 gene endogenously” value (B-LCLs expressing WT1 [3]) read?
**A.** The value was “have a cytotoxic activity against cells expressing WT1 gene endogenously”.

**Q.** With “CMTWNQMNL (listed as Homo sapiens) [WT1235, WT1 peptide that matches HLA-A*2402]” as the substance, how does the “induction of WT1-specific CTLs” value (human cells) read?
**A.** The value was “WT1-specific CTLs (TAK-1) are induced”.

**Q.** With “SLGEQQYSV (listed as Homo sapiens) [WH187 peptide]” as the substance, how does the “induction of WT1-specific CTLs” value [4] read?
**A.** Its value is “WT1-specific CTLs are induced”.

**Q.** Which “ability to induce a CTL” value [5] does the source give for “WT1379 peptide: known peptide disclosed in WO 2002/28414; differs from WT1378 peptide by one amino acid in the WT1 protein sequence (GVKPFQCKT; listed as Homo sapiens)” here?
**A.** Its value is “much lower than that of WT1378 peptide”.

**Q.** For PILCGAQYR [WT1279], which “cytotoxic activity of induced CTLs against cells expressing WT1 gene endogenously” value (B-LCLs expressing WT1 [3]) is on record?
**A.** Its value is “have a cytotoxic activity against cells expressing WT1 gene endogenously”.
